Earlier results as cited in patent publication US20180333418A1, “USE OF PAN FGFR INHIBITORS AND METHOD OF IDENTIFYING PATIENTS WITH CANCER ELIGIBLE FOR TREATMENT WITH A PAN FGFR INHIBITOR” (BAYER PHARMA AKTIENGESELLSCHAFT, priority 2014, published 2018).

How the values were obtained:
[1] = system: FGFR1-amplified osteosarcoma cell line G-292; details: Guagnano et al.; cited from earlier work
[2] = system: ovarian cancer cell line A2780; details: Guagnano et al.; cited from earlier work

SMILES: CCN1CCN(c2ccc(Nc3cc(N(C)C(=O)Nc4c(Cl)c(OC)cc(OC)c4Cl)ncn3)cc2)CC1 [BGJ398]
- anti-proliferative effects [1]: anti-proliferative effects
- sensitivity in vitro towards treatment [2]: sensitive
